Data reported in paper PMC12316308, “Interactions of substrates and phosphinyl containing inhibitors with bacterial and human zinc proteases” (PLOS One, 2025).
“And” between values parts separate entries of the source, which are not always exact repeats. Identical values can stand only once. “Also recorded” adds a separate entry of the source. Like-named read-outs stand apart in the source and are kept apart here.

Assays:
[1] = target: T1, Mag-Trypsin activated MMP-9 (MMP-9(MT)) (Homo sapiens, UniProt P14780); assay: Enzyme inhibition kinetics, fluorogenic substrate ES001; format: biochemical; details: 100 µM inhibitor, no preincubation
T1 construct: made in house; host or cells: Sf9 and High Five insect cells
T1 sequence (P14780 107-707 limits assumed): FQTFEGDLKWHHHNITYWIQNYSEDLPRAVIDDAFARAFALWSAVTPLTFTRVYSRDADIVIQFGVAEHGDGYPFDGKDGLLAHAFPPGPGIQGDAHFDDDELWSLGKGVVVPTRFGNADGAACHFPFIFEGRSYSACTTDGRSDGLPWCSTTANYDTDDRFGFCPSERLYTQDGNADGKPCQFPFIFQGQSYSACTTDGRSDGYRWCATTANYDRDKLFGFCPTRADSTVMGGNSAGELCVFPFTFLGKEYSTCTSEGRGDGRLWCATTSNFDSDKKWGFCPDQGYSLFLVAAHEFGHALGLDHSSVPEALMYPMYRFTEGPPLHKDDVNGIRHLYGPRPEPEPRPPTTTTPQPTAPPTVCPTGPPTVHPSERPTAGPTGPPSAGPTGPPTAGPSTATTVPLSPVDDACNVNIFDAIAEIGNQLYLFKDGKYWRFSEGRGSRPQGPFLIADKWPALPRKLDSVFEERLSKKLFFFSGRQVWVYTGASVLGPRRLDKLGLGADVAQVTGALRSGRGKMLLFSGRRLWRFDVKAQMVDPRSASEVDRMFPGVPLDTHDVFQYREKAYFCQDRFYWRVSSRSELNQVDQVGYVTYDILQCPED

MMP-14 = details: previously reported; cited from earlier work
MMP-9 = details: previously reported; cited from earlier work
[2] = target: T2, human MT1-MMP/MMP-14 (catalytic domain) (Homo sapiens, UniProt P50281); assay: Enzyme inhibition kinetics, fluorogenic substrate ES001; format: biochemical; details: for remaining activity at 0.01 µM: log [H1] (M) -8; for remaining activity at 0.0001 µM: log [H1] (M) -10
T2 construct: human MT1-MMP/MMP-14 (catalytic domain); purchased Calbiochem (San Diego, CA, USA)

pseudolysin (PLN, LasB) = target: T3, pseudolysin (PLN, LasB) (Pseudomonas aeruginosa, UniProt P14756); assay: Enzyme inhibition kinetics, fluorogenic substrate ES005; format: biochemical; details: for remaining activity at 100 µM: 100 µM inhibitor
T3 construct: purchased Calbiochem (San Diego, CA, USA)
T3 sequence (P14756 198-498): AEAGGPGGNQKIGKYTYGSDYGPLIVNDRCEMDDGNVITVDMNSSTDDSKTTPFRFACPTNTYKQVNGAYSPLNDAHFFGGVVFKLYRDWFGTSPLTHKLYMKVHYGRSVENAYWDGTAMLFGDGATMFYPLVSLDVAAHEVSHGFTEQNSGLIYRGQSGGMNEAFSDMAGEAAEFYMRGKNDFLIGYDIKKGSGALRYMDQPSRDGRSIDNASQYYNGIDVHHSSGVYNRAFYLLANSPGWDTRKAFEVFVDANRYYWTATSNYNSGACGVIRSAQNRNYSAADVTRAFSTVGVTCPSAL

thermolysin (TLN) = target: T4, thermolysin (TLN) (Bacillus thermoproteolyticus, UniProt P00800); assay: as above; format: biochemical; details: for vi/v0 avg (time dependent inhibition, Supplementary Figure S8): Thermolysin, inhibitor 100 µM
T4 construct: purchased Calbiochem (San Diego, CA, USA)
T4 sequence (P00800 233-548): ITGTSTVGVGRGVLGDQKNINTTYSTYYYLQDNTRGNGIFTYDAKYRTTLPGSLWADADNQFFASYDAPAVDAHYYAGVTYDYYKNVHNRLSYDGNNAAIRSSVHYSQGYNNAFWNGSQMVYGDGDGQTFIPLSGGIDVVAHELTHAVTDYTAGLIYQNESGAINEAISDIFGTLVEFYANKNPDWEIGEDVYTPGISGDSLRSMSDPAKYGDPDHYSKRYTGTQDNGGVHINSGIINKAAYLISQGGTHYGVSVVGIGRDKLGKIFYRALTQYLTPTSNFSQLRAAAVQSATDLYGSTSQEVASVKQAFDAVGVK
Procedure, shortened: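 Initial rates were read at 37 °C (ex 320/em 405 nm) with 4.0 µM substrate, ES001 for MMP-14 (1.0 nM) and ES005 for PLN (0.5 nM), TLN (0.21 nM), ALN (1.4 nM), in pH 7.5 Hepes, 10 mM CaCl2, 0.005% Brij-35, 1.0% DMSO. Enzymes were preincubated 30 min at room temperature or not; IC50 fitted, Ki from IC50 using Km.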

aureolysin (ALN) = target: T5, aureolysin (ALN) (Staphylococcus aureus, UniProt P81177); assay: as above; format: biochemical; details: for remaining activity at 100 µM: 100 µM inhibitor
T5 construct: purchased BioCentrum Ltd (Kraków, Poland)
T5 sequence (P81177 209-509): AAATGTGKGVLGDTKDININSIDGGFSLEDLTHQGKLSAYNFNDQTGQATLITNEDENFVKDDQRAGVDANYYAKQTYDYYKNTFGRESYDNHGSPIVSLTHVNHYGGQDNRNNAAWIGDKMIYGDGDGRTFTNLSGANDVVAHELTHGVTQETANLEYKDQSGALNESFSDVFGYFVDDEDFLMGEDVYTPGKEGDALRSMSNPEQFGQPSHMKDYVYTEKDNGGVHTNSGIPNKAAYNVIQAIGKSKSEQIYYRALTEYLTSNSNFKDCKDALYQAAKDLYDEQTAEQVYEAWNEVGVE

[3] = MMP-14, log [H1] (M) -4, replicates
[4] = read-out: vi/v0 before correction of curve, MMP-14, replicates
[5] = read-out: vi/v0 corrected (v0 is the average of log -10 to log -7), MMP-14, replicates

NC(=O)C(CCC(=O)O)NC(=O)C(CCC(=O)O)NC(=O)C(Cc1cc(-c2ccc(-c3cccc(Cl)c3)cc2)no1)CP(=O)(O)c1ccc(Br)cc1 (stereo not drawn) [H-1]
remaining activity at 100 µM ([1]; read-out: vi/v0 (single replicate), rMMP-9 (Mag-trypsin activated)): 45.7%
remaining activity at 100 µM ([1]; read-out: vi/v0 avg, rMMP-9 (Mag-trypsin activated)): 47.2%
Ki (MMP-14): 140 nM
Ki (MMP-9): 1300 nM
Ki [2]: 890 ± 40 nM
remaining activity at 100 µM ([2]; 0.25 h, read-out: vi/v0 (single replicate), MMP-14, 100 µM inhibitor, 15 min pre incubation): 3.03%
remaining activity at 100 µM ([2]; 0.25 h, read-out: vi/v0 avg, MMP-14, 100 µM inhibitor, 15 min pre incubation): 2.86%
remaining activity at 100 µM ([2]; 0.5 h, read-out: vi/v0 (single replicate), MMP-14, 100 µM inhibitor, 30 min pre incubation): 4.56%
remaining activity at 100 µM ([2]; 0.5 h, read-out: vi/v0 avg, MMP-14, 100 µM inhibitor, 30 min pre incubation): 3.15%
inhibitory effect on enzymatic activity ([2]; MMP-14, 100 μM compound, in words): strong inhibition
vi/v0 Av (bar diagram figure 7) ([2]; MMP-14, inhibitor 100 μM, average over preincubation times): 0.03265
vi/v0 (relative enzyme activity with inhibitor), single determinations ([2]; MMP-14, inhibitor 100 μM, preincubation 0 min): 0.02699 and 0.03692 and 0.04011 and 0.0422
vi/v0 (relative enzyme activity with inhibitor), single determinations ([2]; MMP-14, inhibitor 100 μM, preincubation 15 min): 0.03033 and 0.02659 and 0.02876
vi/v0 (relative enzyme activity with inhibitor), single determinations ([2]; MMP-14, inhibitor 100 μM, preincubation 30 min): 0.04555 and 0.0252 and 0.02389
vi/v0 before correction of curve [2, 3]: 0
vi/v0 corrected (v0 is the average of log -10 to log -7) [2, 3]: 0
remaining activity at 100 µM ([2]; read-out: vi/v0 (single replicate), MMP-14, 100 µM inhibitor, no preincubation): 2.7%
remaining activity at 100 µM ([2]; read-out: vi/v0 avg, MMP-14, 100 µM inhibitor, no preincubation): 3.66%
remaining activity at 100 µM ([2]; read-out: vi/v0 before correction of curve, MMP-14, log [H1] (M) -4, replicates): 0%
remaining activity at 0.01 µM [2, 4]: 90.7%
remaining activity at 0.0001 µM [2, 4]: 94.8%
remaining activity at 100 µM ([2]; read-out: vi/v0 corrected (v0 is the average of log -10 to log -7), MMP-14, log [H1] (M) -4, replicates): 0%
remaining activity at 0.01 µM [2, 5]: 91.4%
remaining activity at 0.0001 µM [2, 5]: 95.4%
remaining activity at 100 µM (pseudolysin (PLN, LasB); 0.25 h, read-out: vi/v0 (single replicate), Pseudolysin, 15 min pre incubation): 97.4%
remaining activity at 100 µM (pseudolysin (PLN, LasB); 0.25 h, read-out: vi/v0 avg, Pseudolysin, 15 min pre incubation): 100%
remaining activity at 100 µM (pseudolysin (PLN, LasB); 0.5 h, read-out: vi/v0 (single replicate), Pseudolysin, 30 min pre incubation): 99%
remaining activity at 100 µM (pseudolysin (PLN, LasB); 0.5 h, read-out: vi/v0 avg, Pseudolysin, 30 min pre incubation): 96.9%
inhibitory effect on enzymatic activity (pseudolysin (PLN, LasB); PLN, 100 μM compound, in words, 100 µM): did not inhibit; also recorded: no inhibition
vi/v0 Av (bar diagram figure 7) (pseudolysin (PLN, LasB); Pseudolysin (PLN), inhibitor 100 μM, average over 0, 15, 30 min preincubation): 0.993
vi/v0 (relative enzyme activity with inhibitor), single determinations (pseudolysin (PLN, LasB); Pseudolysin (PLN), inhibitor 100 μM, preincubation 0 min): 0.9731 and 1.039 and 1.005 and 1.023
vi/v0 (relative enzyme activity with inhibitor), single determinations (pseudolysin (PLN, LasB); Pseudolysin (PLN), inhibitor 100 μM, preincubation 15 min): 0.9736 and 1.014 and 0.9905 and 1.0217
vi/v0 (relative enzyme activity with inhibitor), single determinations (pseudolysin (PLN, LasB); Pseudolysin (PLN), inhibitor 100 μM, preincubation 30 min): 0.9904 and 0.9857 and 0.9514 and 0.949
remaining activity at 100 µM (pseudolysin (PLN, LasB); read-out: vi/v0 (single replicate), Pseudolysin, no preincubation): 97.3%
remaining activity at 100 µM (pseudolysin (PLN, LasB); read-out: vi/v0 avg, Pseudolysin, no preincubation): 101%
inhibitory effect on enzymatic activity (thermolysin (TLN); TLN, 100 μM compound, in words, 100 µM): did not inhibit; also recorded: no inhibition
vi/v0 Av (bar diagram figure 7) (thermolysin (TLN); Thermolysin (TLN), inhibitor 100 μM, average over 0, 15, 30 min preincubation): 1.079
vi/v0 (relative enzyme activity with inhibitor), single determinations (thermolysin (TLN); Thermolysin (TLN), inhibitor 100 μM, preincubation 0 min): 1.072 and 1.233 and 0.6933 and 1.269
vi/v0 (relative enzyme activity with inhibitor), single determinations (thermolysin (TLN); Thermolysin (TLN), inhibitor 100 μM, preincubation 15 min): 1.072 and 0.7991 and 1.161 and 1.236
vi/v0 (relative enzyme activity with inhibitor), single determinations (thermolysin (TLN); Thermolysin (TLN), inhibitor 100 μM, preincubation 30 min): 1.057 and 0.7107 and 1.167 and 1.093
vi/v0 avg (time dependent inhibition, Supplementary Figure S8) (thermolysin (TLN); 15 min pre incubation): 1.067
vi/v0 avg (time dependent inhibition, Supplementary Figure S8) (thermolysin (TLN); 30 min pre incubation): 1.007
vi/v0 avg (time dependent inhibition, Supplementary Figure S8) (thermolysin (TLN); No preincubation): 1.0666
remaining activity at 100 µM (aureolysin (ALN); 0.25 h, read-out: vi/v0 (single replicate), Aureolysin, 15 min pre incubation): 81.9%
remaining activity at 100 µM (aureolysin (ALN); 0.25 h, read-out: vi/v0 avg, Aureolysin, 15 min pre incubation): 88.7%
remaining activity at 100 µM (aureolysin (ALN); 0.5 h, read-out: vi/v0 (single replicate), Aureolysin, 30 min pre incubation): 89.6%
remaining activity at 100 µM (aureolysin (ALN); 0.5 h, read-out: vi/v0 avg, Aureolysin, 30 min pre incubation): 89.8%
inhibitory effect on enzymatic activity (aureolysin (ALN); ALN, 100 μM compound, in words, 100 µM): did not inhibit; also recorded: no inhibition
vi/v0 Av (bar diagram figure 7) (aureolysin (ALN); Aureolysin (ALN), inhibitor 100 μM, average over 0, 15, 30 min preincubation): 0.886
vi/v0 (relative enzyme activity with inhibitor), single determinations (aureolysin (ALN); Aureolysin (ALN), inhibitor 100 μM, preincubation 0 min): 0.8363 and 0.9057 and 0.9048 and 0.862
vi/v0 (relative enzyme activity with inhibitor), single determinations (aureolysin (ALN); Aureolysin (ALN), inhibitor 100 μM, preincubation 15 min): 0.8192 and 0.9295 and 0.9112
vi/v0 (relative enzyme activity with inhibitor), single determinations (aureolysin (ALN); Aureolysin (ALN), inhibitor 100 μM, preincubation 30 min): 0.8961 and 0.9218 and 0.8734
remaining activity at 100 µM (aureolysin (ALN); read-out: vi/v0 (single replicate), Aureolysin, no preincubation): 83.6%
remaining activity at 100 µM (aureolysin (ALN); read-out: vi/v0 avg, Aureolysin, no preincubation): 87.7%
